From patent publication US20260007131A1, “HERBICIDAL COMPOSITION CONTAINING DIFLUOROBUTENOIC ACID AMIDE COMPOUND” (ISHIHARA SANGYO KAISHA, LTD., priority 2022, published 2026)

Assays:
Format in all cases: in vivo
[1] = system: redroot pigweed (Amaranthus retroflexus); experiment: Herbicidal effect on redroot pigweed (soil treatment)
From the text: (§1) Upland soil was put into a 1/300,000 hectare (ha) pot, seeds of barnyardgrass (Echinochloa crus-galli) were sown, and about 1.5 cm of cover soil was put. […] On the next day after sowing, the spray solution was sprayed with a small sprayer for soil treatment.
(§2) Upland soil was put into a 1/300,000 hectare (ha) pot, seeds of barnyardgrass (Echinochloa crus-galli), crabgrass (Digitaria sanguinalis), green foxtail (Setaria viridis), Italian ryegrass (Lolium multiflorum), redroot pigweed (Amaranthus retroflexus) and common chickweed (Stellaria media) were sown, and about 1.5 cm of cover soil was put.

[2] = system: barnyardgrass (Echinochloa crus-galli); experiment: Herbicidal effect on barnyardgrass (foliar treatment); conditions: Comparative Test 1, barnyardgrass, read-out: Growth inhibition rate
Protocol: (§3) Upland soil was put into a 1/300,000 hectare (ha) pot, seeds of barnyardgrass (Echinochloa crus-galli) were sown, and about 1.5 cm of cover soil was put. The barnyardgrass was grown for 10 days in a greenhouse until it reached a predetermined leaf stage. […] The spray solution was sprayed over the grown barnyardgrass with a small sprayer for foliar treatment.
(§4) Upland soil was put into a 1/300,000 hectare (ha) pot, seeds of barnyardgrass (Echinochloa crus-galli), crabgrass (Digitaria sanguinalis), green foxtail (Setaria viridis), wild oat (Avena fatua), Italian ryegrass (Lolium multiflorum), foxtail shortawn (Alopecurus aequalis), annual bluegrass (Poa annua), redroot pigweed (Amaranthus retroflexus), common chickweed (Stellaria media) common lambsquarters (Chenopodium album) and black nightshade (Solanum nigrum) were sown, and about 1.5 cm of cover soil was put. The plants were grown for 10 days in a greenhouse until they reached a predetermined leaf stage.

[3] = system: barnyardgrass (Echinochloa crus-galli); experiment: Herbicidal effect on barnyardgrass (soil treatment); conditions: Comparative Test 2, barnyardgrass, read-out: Growth inhibition rate
From the text: as §1, §2

[4] = system: crabgrass (Digitaria sanguinalis); experiment: Herbicidal effect on crabgrass (foliar treatment); conditions: Comparative Test 1, crabgrass, read-out: Growth inhibition rate
Protocol: as §3, §4

[5] = system: Italian ryegrass (Lolium multiflorum); experiment: Herbicidal effect on Italian ryegrass (soil treatment)
From the text: as §1, §2

[6] = system: foxtail shortawn (Alopecurus aequalis); experiment: Herbicidal effect on foxtail shortawn (foliar treatment); conditions: Comparative Test 1, foxtail shortawn, read-out: Growth inhibition rate
Protocol: as §3, §4

[7] = system: common lambsquarters (Chenopodium album); experiment: Herbicidal effect on common lambsquarters (foliar treatment); conditions: Comparative Test 1, common lambsquarters, read-out: Growth inhibition rate
Protocol: as §3, §4

[8] = system: redroot pigweed (Amaranthus retroflexus); experiment: Herbicidal effect on redroot pigweed (foliar treatment); conditions: Comparative Test 1, redroot pigweed, read-out: Growth inhibition rate
Protocol: as §3, §4

[9] = system: green foxtail (Setaria viridis); experiment: Herbicidal effect on green foxtail (foliar treatment); conditions: Comparative Test 1, green foxtail, read-out: Growth inhibition rate
Protocol: as §3, §4

[10] = system: crabgrass (Digitaria sanguinalis); experiment: Herbicidal effect on crabgrass (soil treatment)
From the text: as §1, §2

[11] = system: common chickweed (Stellaria media); experiment: Herbicidal effect on common chickweed (foliar treatment); conditions: Comparative Test 1, common chickweed, read-out: Growth inhibition rate
Protocol: as §3, §4

[12] = system: Italian ryegrass (Lolium multiflorum); experiment: Herbicidal effect on Italian ryegrass (foliar treatment); conditions: Comparative Test 1, Italian ryegrass, read-out: Growth inhibition rate
Protocol: as §3, §4

[13] = system: wild oat (Avena fatua); experiment: Herbicidal effect on wild oat (foliar treatment); conditions: Comparative Test 1, wild oat, read-out: Growth inhibition rate
Protocol: as §3, §4

[14] = system: annual bluegrass (Poa annua); experiment: Herbicidal effect on annual bluegrass (foliar treatment); conditions: Comparative Test 1, annual bluegrass, read-out: Growth inhibition rate
Protocol: as §3, §4

[15] = system: green foxtail (Setaria viridis); experiment: Herbicidal effect on green foxtail (soil treatment); conditions: Comparative Test 2, green foxtail, read-out: Growth inhibition rate
From the text: as §1, §2

[16] = system: common chickweed (Stellaria media); experiment: Comparative Test 2: herbicidal effect on common chickweed (soil treatment); conditions: Comparative Test 2, common chickweed, read-out: Growth inhibition rate
From the text: Upland soil was put into a 1/300,000 hectare (ha) pot, seeds of barnyardgrass (Echinochloa crus-galli), crabgrass (Digitaria sanguinalis), green foxtail (Setaria viridis), Italian ryegrass (Lolium multiflorum), redroot pigweed (Amaranthus retroflexus) and common chickweed (Stellaria media) were sown, and about 1.5 cm of cover soil was put. The Invention Compound (Aa-1-1, Aa-9-2) or the compound 4b described in Patent Document 1 was weighed to achieve a predetermined active ingredient dose, dissolved in acetone (containing 0.5 vol % of surfactant (TritonX-100: manufactured by Kishida Chemical Co., Ltd.)) or dimethyl sulfoxide and diluted with water (containing 0.1 vol % of agricultural spreader (Surfactant WK: manufactured by MARUWA Biochemical Co., Ltd.) in an amount corresponding to 1,000 liter per hectare, to prepare each spray solution. On the next day after sowing, each spray solution was sprayed with a small sprayer for soil treatment. On the 14th day after the soil treatment, the state of growth of each plant was visually observed, and the herbicidal effect was evaluated in accordance with the growth inhibition rate (%) of from 0 (equivalent to the non-treated area) to 100 (complete kill).

[17] = system: black nightshade (Solanum nigrum); experiment: Herbicidal effect on black nightshade (foliar treatment); conditions: Comparative Test 1, black nightshade, read-out: Growth inhibition rate
Protocol: as §3, §4

[18] = Comparative Test 2, redroot pigweed, read-out: Growth inhibition rate
[19] = Comparative Test 2, Italian ryegrass, read-out: Growth inhibition rate
[20] = Comparative Test 2, crabgrass, read-out: Growth inhibition rate

Row | Compound | inhibition at 500 g/ha [1, 18] | inhibition at 1000 g/ha [1, 18] | inhibition at 500 g/ha [2] | inhibition at 1000 g/ha [2] | inhibition at 500 g/ha [3] | inhibition at 1000 g/ha [3] | inhibition at 500 g/ha [4] | inhibition at 1000 g/ha [4] | inhibition at 500 g/ha [5, 19] | inhibition at 1000 g/ha [5, 19] | inhibition at 500 g/ha [6] | inhibition at 1000 g/ha [6] | inhibition at 500 g/ha [7] | inhibition at 1000 g/ha [7] | inhibition at 500 g/ha [8] | inhibition at 1000 g/ha [8] | inhibition at 500 g/ha [9] | inhibition at 1000 g/ha [9] | inhibition at 500 g/ha [10, 20] | inhibition at 1000 g/ha [10, 20] | other results
1 | COC(=O)[C@H]1C[C@H](NC(=O)C(F)(F)/C=C/c2cc(C)cc(F)c2)C1 [Aa-9-2] | ≥ 90% | ≥ 90% | ≥ 90% | ≥ 90% | ≥ 90% | ≥ 90% | ≥ 90% | ≥ 90% | ≥ 90% | ≥ 90% | ≥ 90% | ≥ 90% | 70 to 90% | 70 to 90% | 70 to 90% | 70 to 90% | ≥ 90% | ≥ 90% | ≥ 90% | ≥ 90% | inhibition at 500 g/ha ([1]; redroot pigweed, 14th day, read-out: growth inhibition rate): ≥ 70%; inhibition at 500 g/ha ([5]; Italian ryegrass, 14th day, read-out: growth inhibition rate): ≥ 70%; inhibition at 500 g/ha ([10]; crabgrass, 14th day, read-out: growth inhibition rate): ≥ 70%; inhibition at 500 g/ha [11]: ≥ 90%; inhibition at 1000 g/ha [11]: ≥ 90%; inhibition at 500 g/ha [12]: ≥ 90%; inhibition at 1000 g/ha [12]: ≥ 90%; inhibition at 500 g/ha [13]: ≥ 90%; inhibition at 1000 g/ha [13]: ≥ 90%; inhibition at 500 g/ha [14]: ≥ 90%; inhibition at 1000 g/ha [14]: ≥ 90%; inhibition at 500 g/ha [15]: ≥ 90%; inhibition at 1000 g/ha [15]: ≥ 90%; inhibition at 500 g/ha [16]: ≥ 90%; inhibition at 1000 g/ha [16]: ≥ 90%; inhibition at 500 g/ha [17]: 50 to 70%; inhibition at 1000 g/ha [17]: 70 to 90%
2 | CN(C(=O)/C=C/c1ccccc1)C1CCC1 [Compound 4b, reference compound] | < 30% | < 30% | < 30% | < 30% | < 30% | < 30% | < 30% | < 30% | < 30% | < 30% | < 30% | < 30% | < 30% | < 30% | < 30% | 30 to 50% | < 30% | < 30% | < 30% | < 30% | inhibition at 500 g/ha [11]: < 30%; inhibition at 1000 g/ha [11]: 30 to 50%; inhibition at 500 g/ha [12]: < 30%; inhibition at 1000 g/ha [12]: < 30%; inhibition at 500 g/ha [13]: < 30%; inhibition at 1000 g/ha [13]: < 30%; inhibition at 500 g/ha [14]: < 30%; inhibition at 1000 g/ha [14]: < 30%; inhibition at 500 g/ha [15]: < 30%; inhibition at 1000 g/ha [15]: < 30%; inhibition at 500 g/ha [16]: < 30%; inhibition at 1000 g/ha [16]: < 30%; inhibition at 500 g/ha [17]: < 30%; inhibition at 1000 g/ha [17]: ≥ 90%
